# According to USRE46907E1, “Suppression of cancer growth and metastasis using nordihydroguaiaretic acid derivatives with metabolic modulators” (THE JOHNS HOPKINS UNIVERSITY, priority 2008, dated 2018):
# Tests used:
# [1] = daily (1 mg/day) IV injection, nude mice carrying human tumor xenografts; cited from earlier work
# [2] = cited from earlier work
# [3] = test system: PDK-1/Akt pathway-related proteins; experiment: Western blotting of PDK-1/Akt pathway-related proteins in 4T1 cells; format: cell-based, mouse; conditions: 4T1, 5 hrs after treatment
# Description: (§1) Western blotting: After cells had been grown in 25 mm^2 flasks and treated with reagents, the cells were washed with PBS (−) three times and suspended in RIP A buffer (150 mM NaCl, 50 mM Tris-HCl (pH 8,0), 0.1% SDS, 1% NP40, and 0.5% deoxycholate) supplemented with protease inhibitor cocktail (Calbiochem, San Diego, Calif.). The sample volumes were adjusted by the total protein amount. Protein assay was performed by Bio-Rad Protein Assay (Bio-Rad Laboratories, Inc. Hercules, Calif.). The samples were resolved by the standard SDS-polyacrylamide gel electrophoresis and transferred to nitrocellulose membrane (Amersham Biosciences, Bjorkgatan, Sweden). The membranes were blocked with skim milk, and incubated with primary antibodies at 4° C. overnight and then with secondary antibody conjugated with horse radish peroxidase at room temperature for 2 hrs. The signals were detected by western blot chemiluminescence reagent plus (New England Nuclear Life Science Products, Boston, Mass.).
# [4] = test system: PKCδ; experiment: Immunocytochemistry of PKCδ cellular localization in LNCaP cells; format: cell-based, human; conditions: 5 hrs
# Description: Immunocytocheimstry: Cells were cultured on glass cover slips coated with poly-L-ornithine (Sigma, Saint Louis, Mo.). At 5 hrs after treatment with drugs, the cells were fixed with 10% formaldehyde in diluted in PBS (−) and washed with PBS (−) three times. After permeabilized by 0.2% Tryton X-100 and 1% goat serum diluted in PBS (−), the cells were blocked by PBS (−) containing 5% goat serum. The cells were then incubated with primary antibodies diluted in PBS (−) containing 0.5% bovine serum albumin (BSA), and with secondary antibodies, which is either anti-IgG conjugated with fluorescein (Vector Laboratories. Burlingame, Calif.), diluted in PBS (−) containing 0.5% BSA. The cells were observed through Zeiss fluorescent microscope (Carl Zeiss, Thornwood, N.Y.).
# [5] = test system: PDK-1/Akt pathway-related proteins; experiment: Western blotting of PDK-1/Akt pathway-related proteins in 67NR cells; format: cell-based, mouse; conditions: 5 hrs after treatment
# Description: as §1
# [6] = test system: HIF; experiment: Western blotting of HIF in 4T1 cells; format: cell-based, mouse; conditions: 4T1, M4N 80 μM
# Description: as §1
# [7] = test system: PKCδ; experiment: Western blotting of total PKCδ and phosphor-PKCδ (Thr505) in 67NR cells; format: cell-based, mouse; conditions: 5 hrs, M4N 80 μM, Ro 5 μM, Ly 20 μM, Des 150 μM
# Description: as §1, with “The” for “Western blotting: After cells had been grown in 25 mm^2 flasks and treated with reagents, the cells were washed with PBS (−) three times and suspended in RIP A buffer (150 mM NaCl, 50 mM Tris-HCl (pH 8,0), 0.1% SDS, 1% NP40, and 0.5% deoxycholate) supplemented with protease inhibitor cocktail (Calbiochem, San Diego, Calif.). The”
# [8] = test system: LNCaP human prostate cancer cells; experiment: MTT cell growth assay in LNCaP cells; format: cell-based; conditions: 24 hrs, M4N 80 μM, Ro 5 μM, Ly 20 μM
# Description: (§2) Cell Culture Either cell line 4T1 or 67NR was a gift from Dr. Miller (20). The cells were cultured in RPMI1640 medium supplemented with glucose (14 mM), pyruvate (1 mM), penicillin (100 units/ml), streptomycin (100 μg/ml), and fetal bovine serum (10%), buffered with 25 mM HEPES (pH 7.4). LNCaP human prostate cancer cell line was purchased from American Type Culture Collection (Manassas, Va.). The cell line was cultured in RPMI1640 medium supplemented with glucose (14 mM), pyruvate (1 mM), penicillin (100 units/ml), streptomycin (100 μg/ml), and fetal bovine serum (10%). Drugs were dissolved in dimethyl sulfoxide (DMSO) at a suitable concentration so that the final concentration of DMSO in the medium was less than 0.1%.
# MTT assay: Cells were incubated in PBS (−) supplemented with 5% fetal calf serum and 0.5 mg/ml MTT, 3-(4,5-Dimethylthiazol-2-yl)-2,5-diphenyltetrazolium bromide (Sigma, Saint Louis, Mo.) for 2 hrs. After the incubation, the cells were dissolved in dimethyl sulfoxide and the color of the solutions was measured by a spectrophotometer at wavelengths of 540 and 690 nm. The values correlated with viable cell numbers were obtained by subtracting the optical density at 690 nm from that, at 540 nm.
# [9] = test system: 67NR cells; experiment: TUNEL apoptosis assay in 67NR cells; format: cell-based, mouse; conditions: 48 hr after treatment, M4N 80 μM
# Description: as §2
# Apoptosis assay: Simple TLTNEL assay was conducted by using TUNEL apoptosis detection kit (Upstate, Temecula, Calif.) with some modification. For the evaluation of the effect of PKCδ wild type and dominant negative vectors on TUNEL-positive cell death, we first transfected 4T1 or 67NR cells with these vectors by effectene (Qiagen, Valencia, Calif.). Wild type PKCδ vector is constructed from wild type PKCδ gene and pEGFP (Promega, Madison, Wis.). Dominant negative PKCδ vector is constructed from PKCδ gene mutated at a 376th amino acid residue (threonine) and pEGFP (Promega, Madison, Wis.) This threonine residue is located in ATP-binding domain of protein kinase Cδ, and therefore essential for any kinase reaction of the protein so that this mutant protein supposedly function as dominant negative. As a control we used pEGFP-N3 vector was used. These vectors contain green fluorescent protein (GFP) gene to be used as a transfection marker. The vectors are kind gifts from Dr. Yuspa (National Institutes of Health, Bethesda, Md.) (88). Twenty four hours after transfection, the cells were treated with M4N, Rottlerin, or Ly294002. Then 24 hrs after this treatment with these reagents, the cells were fixed with 10% formaldehyde in phosphate buffered saline without calcium and magnesium (PBS (−)). The cells were then incubated with rabbit anti-GFP antibody (MBL International, Woburn, Mass.) followed by treatment with anti-rabbit IgG antibody conjugated with fluorescein (Promega, Madison, Wis.). TUNEL staining was conducted by using TUNEL apoptosis detection kit (Upstate, Temecula, Calif.) except for using Streptavidin-Alexa Fluor 568 (Molecular Probes, Eugene, Oreg.) instead of Avidine-Rhodamine contained in the kit. Cell death was evaluated by dividing the number of TUNEL-positive cells among the cells positive with anti-GFP staining by the number of these GFP-positive cells.
# [10] = test system: tumors; conditions: intravenous infusion, cited from earlier work
smiles,measurement,setting,value
"COc1ccc(C[C@@H](C)[C@@H](C)Cc2ccc(OC)c(OC)c2)cc1OC [M4N, tetra-O-methyl nordihydroguaiaretic acid]",M4N level accumulated in blood and tumors,[1],above 1 mM
same,toxic effects after oral administration,"[2]; mouse, in vivo, po",essentially no toxic effects
same,M4N concentration retained in mouse organs,"[2]; oral administration, short term and long term feeding",≤ 906 μg/g of tissue
same,total Akt expression,[3],not changed much
same,"expression of phosphorylated PDK (Ser241), Akt (Ser473), PRAS40 (Thr246), Raf (Ser259), MEK (Ser217/221)","[3]; M4N 80 μM, Desferoxamine 75 or 150 μM",not much effect
same,expression and nuclear level of total PKCδ,[4],"Neither M4N, Ro, nor Ly treatment caused any remarkable change"
same,nuclear expression of phosphor-PKCδ (Thr507),[4],augmented
same,total Akt expression,[5],not changed much
same,"expression of phosphorylated PDK (Ser241), Akt (Ser473), PRAS40 (Thr246), Raf (Ser259), MEK (Ser217/221)",[5]; M4N 80 μM,significant reduction
same,effect on Desferoxamine-mediated HIF induction,[6],slightly suppressed
same,amount of phosphorylated PKCδ at Thr505,[7],induced phosphorylation
same,cell growth (MTT),[8],able to reduce cell growth almost as much as a combination treatment
same,TUNEL-positive cell death,[9],more cell death in 67NR cells than 4T1 cells
same,disease stabilization in patients,[10]; Phase I/II,long term stabilization of disease in some patients
same,tumor shrinkage in patients,[10],tumor shrinkage has rarely been seen
